Assays:
[1] = tested on: MsrA-knockdown SK-Hep1 cells; test: Growth of MsrA-knockdown SK-Hep1 cells on Met and Met sulfoxide media; type: cell-based, human; conditions: 0.1 mM, 96 hours
Protocol: Proliferation Assay—Cell growth was quantified using colorimetric MTS assay (Promega). Cells in regular DMEM medium were plated in 96-well plates at 5×10^3 cells/well, washed with PBS, and specialized DMEM media were added that contained Met, Met-SO, Met-RO, or Met-RSO 24 hours after plating. To assay for cell proliferation, a tetrazolium compound [3-(4,5-dimethylthiazol-2-yl)-5-(3-carboxymethoxyphenyl)-2-(4-sulfophenyl)-2H-tetrazolium, inner salt; MTS] and an electron coupling reagent (phenazine methosulfate; PMS) were mixed according to the manufacturer's protocol and then 20 μL of the mixture were added to 100 μL of phenol red-excluded media that further replaced cell culture media. After 90 minutes of incubation at 37° C. in the atmosphere of 5% CO2, cell proliferation was measured at indicated time periods from 0 to 96 hours at 450 nm in a plate reader. Direct counting of viable cells using 0.2% trypan blue was done in 6-well plates. Knockdown of MsrA in SK-Hep1 cells by siRNA—Double stranded siRNAs (Dharmacon) for targeting human MsrA mRNA were used to knockdown this gene in SK-Hep1 cells. Cells were transfected with siRNA by using DharmaFECT™ Transfection Reagent (Dharmacon) according to the manufacturer's protocol. Proliferation of these cells was assayed 60 hours after transfection in comparison with control transfected cells.

[2] = tested on: SK-Hep1 cell extracts; test: Specific activity of SK-Hep1 cell extracts for reduction of free Met sulfoxides; type: biochemical, human; conditions: for Specific activity for each Met-O: SK-Hep1, ± standard deviations from 3 independent experiments
Protocol: HPLC analysis of media samples-Cells were plated in 6-well plates at 7.5×10^4 cells/well in 1.5 mL of regular DMEM medium. After 24 hours, cells were washed with PBS and the medium was changed to a modified DMEM containing Met, Met-SO, Met-RO, or Met-RSO (0.1 mM of each amino acid). 90 μL of medium from each well was collected at 0, 24, 48, 72, 96 hours and mixed with 10 μL of 100% TCA. After incubation at 4° C. for 10 minutes and centrifugation at 13,000 rpm for 15 minutes, the supernatant (50 μL) was diluted 10 times with distilled water and prepared for OPA derivatization. OPA derivatization of amino acids and HPLC analysis was performed as described (Sharov, V. S., Ferrington, D. A., Squier, T. C., […]. (1999) FEBS Lett. 455, 247-250) with minor modifications. The derivatization reagent was freshly prepared as a stock solution (40 mg of o-phthalaldehyde, 1 mL of methanol, 50 μL, of 2-mercaptoehanol, 5 mL of 0.1 M Na2B4O7, pH 9.5) at room temperature in a capped amber vial. Sample solutions (2-5 μL) were mixed with the OPA derivatization reagent to 100 μL, final volume. Following a 2 minute reaction at room temperature, the mixture was fractionated on a Zorbax Eclipse XDB-C8 column (4.6×150 mm). Changes in Met levels in the fRMsr activity assay were similarly quantified. […] Activity assays of fRMsr-Reaction mixture (40 μL) included 50 mM DTT, 1 mM substrate (Met-RO or Met-SO), and purified enzyme or cell lysate prepared by treatment with […] cell lysis reagent (Sigma). 20 μL of the reaction mixture was mixed with 2 μL of TCA and subjected to OPA derivatization as described above and then injected onto the column to measure endogenous Met level in the samples. An additional 20 μL from the same original reaction mixture were incubated at 37° C. for 30 minutes and then subjected to OPA derivatization by the same procedure using TCA. After derivatization of the sample (2-5 μL) by adding OPA solution to 100 μL as a final volume, 50 μL of the mixture were subjected to an HPLC separation as described above.

[3] = tested on: ATF3; test: Western blot analysis of ATF3 in SK-Hep1 cells grown on Met and Met sulfoxide media; type: cell-based, human; conditions: 72 hours, compared with cells on Met or Met-SO
Protocol: Analysis of SK-Hep1 and fRMsr-transfected SK-Hep1 cells—SK-Hep1 and fRMsr-transfected SK-Hep1 cells were plated in 6-well plates at 7.5×10^4 cells/well in regular DMEM medium. The medium was changed to Met-free DMEM supplemented with either Met or individual Met sulfoxides at 24 hours after plating. Cells were then collected every 24 hours until 96 hours. Protein concentration was measured by the Bradford assay and the samples were probed by standard immunoblot assays with polyclonal MsrA (kindly provided by Bertrand Friguet), cystathionine beta synthase (CBS) (kindly provided by Ruma Banerjee), and activating transcription factor 3 (ATF3) (Santa Cruz Biotechnology) antibodies.

Row | Compound | Growth of MsrA-deficient cells [1] | Specific activity for each Met-O [2] | Specific activity of SK-Hep1 cell extracts for reduction of free Met sulfoxide [2] | Expression levels of ATF3 [3]
1 | C[S@@+]([O-])CC[C@H](N)C(=O)O [Met-RO, methionine-R-sulfoxide] | grew neither | ND* (A signal corresponding to specific activity less than 5 pmol/min/mg is shown as ND (Not Detectable)) | No free Met-RO reductase activity was detected | low expression levels of ATF3
2 | C[S@+]([O-])CC[C@H](N)C(=O)O [Met-SO, methionine-S-sulfoxide] | grew neither | 38.6 ± 3.6 pmol/min/mg | ≈ 38.6 pmol/min/mg protein | 

— patent US20110178072A1, “STEREOSPECIFICITY OF METHYLSULFINYL REDUCTION” (priority 2008, published 2011)
